Data reported in US10633389B2, “CARM1 inhibitors and uses thereof” (Epizyme, Inc., priority 2013, dated 2020).

What was measured:
human CARM1 (PRMT4) = human CARM1 (PRMT4) (Homo sapiens (Human), UniProt Q86X55); assay: CARM1 enzyme assay on peptide substrate (3H-SAM Flashplate); settings: Biochemical potencies, read-out: Biochem IC50
[1] = system: asymmetric di-methyl PABP1 in RKO cells; assay: RKO methylation assay, In Cell Western (ICW) for asymmetric di-methyl PABP1; type: cell-based; settings: Cellular potencies, ICW PABP1me2a
How it was run: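 RKO cells treated with compound for 48 h at 37 °C, then fixed, permeabilized and immunostained for asymmetric di-methyl PABP1, with DRAQ5 as DNA stain. Infrared 700/800 nm signal ratio normalized to DMSO and 20 μM reference-compound controls; IC50 from triplicate wells.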

Chain of human CARM1 (PRMT4) (Q86X55 other isoform, or with tags, fused parts or gaps isoform Q86X55-1): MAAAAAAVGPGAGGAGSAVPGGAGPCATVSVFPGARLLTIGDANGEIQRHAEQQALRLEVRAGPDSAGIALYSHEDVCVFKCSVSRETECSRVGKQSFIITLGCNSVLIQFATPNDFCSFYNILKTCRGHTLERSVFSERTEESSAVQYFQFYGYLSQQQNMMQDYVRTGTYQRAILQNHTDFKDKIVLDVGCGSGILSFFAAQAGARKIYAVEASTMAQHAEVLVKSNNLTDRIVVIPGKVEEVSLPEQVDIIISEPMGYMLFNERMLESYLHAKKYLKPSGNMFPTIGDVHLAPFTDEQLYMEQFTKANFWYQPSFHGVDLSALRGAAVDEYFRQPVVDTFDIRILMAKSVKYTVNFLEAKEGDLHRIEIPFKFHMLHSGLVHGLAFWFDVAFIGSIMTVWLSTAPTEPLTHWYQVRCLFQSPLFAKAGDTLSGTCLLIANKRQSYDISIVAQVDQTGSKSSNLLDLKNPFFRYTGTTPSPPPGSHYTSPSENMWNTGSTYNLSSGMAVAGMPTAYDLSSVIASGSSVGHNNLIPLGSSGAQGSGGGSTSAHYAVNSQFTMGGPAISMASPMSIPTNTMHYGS

SMILES	IC50 (human CARM1 (PRMT4))	IC50 ([1]; Homo sapiens, RKO)	IC50 [1]
CNCC(O)COc1cccc(-c2nc(N[C@@H]3CCOC3)c(C)c(N3CCC(OCCOC)CC3)n2)c1 (stereo partly drawn) [Example 386-1a]	3 to 10 µM	10 to 20 µM	
CNCC(O)COc1cccc(-c2nc(N[C@@H]3CCOC3)c(C)c(N3CCC[C@H]3COC)n2)c1 (stereo partly drawn) [Example 395-1a]	0.1 to 1 µM	10 to 20 µM	
CNCC(O)COc1cccc(-c2nc(N[C@@H]3CC[C@H](C(=O)N4CCOCC4)C3)c(C)c(N3CCOCC3)n2)c1 (stereo partly drawn) [Example 681-1a]	1 to 3 µM	≥ 20 µM	
CNCC(O)COc1cccc(-c2nc(N[C@@H]3CCOC3)c(F)c(N3CCOCC3)n2)c1 (stereo partly drawn) [Example 433-1a]	0.1 to 1 µM	5 to 10 µM	
CNC[C@@H](O)COc1ccc(Cl)c(-c2nc(-c3c(C)noc3C)c(C)c(C3(C)CC3)n2)c1 [Example 262-3]	0.1 to 1 µM	≥ 20 µM	
CNCC(O)COc1cccc(-c2nc(N[C@H]3CO[C@H]4OCC[C@H]43)c(C)c(N3CCOCC3)n2)c1 (stereo partly drawn) [Example 673-1a]	0.1 to 1 µM		10 to 20 µM
CNCC(O)COc1cccc(-c2nc(NC3CCOCC3)c(C)c(N3CCNC(C)C3)n2)c1 (stereo not drawn) [Example 645-1a]	1 to 3 µM	≥ 20 µM	
CNCC(O)COc1cccc(-c2nc(Nc3c(C)noc3C)cc(-c3c(C)noc3C)n2)c1 (stereo not drawn) [Example 48-1a]	1 to 3 µM	10 to 20 µM	
CNCC(O)COc1cccc(-c2nc(N[C@@H]3CCOC3)c(C)c(-c3ccc[nH]c3=O)n2)c1 (stereo partly drawn) [Example 371-1a]	1 to 3 µM	10 to 20 µM	
CNCC(O)COc1cccc(-c2nc(-c3nccn3C)cc(N(C)C3CCOCC3)n2)c1 (stereo not drawn) [Example 583-1a]	0.1 to 1 µM	10 to 20 µM	
CNCC(O)COc1cccc(-c2nc(C(=O)NC)cc(N(C)C3CCOCC3)n2)c1 (stereo not drawn) [Example 554-1a]	0.1 to 1 µM	10 to 20 µM	
CNCC(O)COc1cccc(-c2nc(N[C@@H]3CCOC3)c(C)c(-c3cnc(=O)[nH]c3)n2)c1 (stereo partly drawn) [Example 357-1a]	0.1 to 1 µM	10 to 20 µM	
CNCC(O)COc1cccc(-c2nc(N3CCN(CC(F)F)[C@@H](C)C3)cc(N(C)C3CCOCC3)n2)c1 (stereo partly drawn) [Example 595-1a]	0.1 to 1 µM	10 to 20 µM	
CNCC(O)COc1cccc(-c2nc(N[C@@H]3CC[C@@H](O)C3)c(C)c(N3CCOCC3)n2)c1 (stereo partly drawn) [Example 679-1a]	1 to 3 µM	≥ 20 µM	
CNCC(O)COc1cccc(-c2nc(C(=O)N(C)C3CCOCC3)cc(N(C)C3CCOCC3)n2)c1 (stereo not drawn) [Example 602-1a]	0.1 to 1 µM	10 to 20 µM	
CNCC(O)COc1cccc(-c2nc(Nc3c(C)nn(C)c3C)cc(N(C)C3CCOCC3)n2)c1 (stereo not drawn) [Example 555-1a]	0.1 to 1 µM	10 to 20 µM	
CNCC(O)COc1cc(Cl)cc(-c2nc(N[C@@H]3CCOC3)c(C)c(C(=O)NCC3CCOCC3)n2)c1 (stereo partly drawn) [Example 336-1a]	0.1 to 1 µM	10 to 20 µM	
CNCC(O)COc1cccc(-c2nc(C3CCN(C(=O)OC)CC3)cc(N(C)C3CCOCC3)n2)c1 (stereo not drawn) [Example 533-1a]	0.1 to 1 µM	5 to 10 µM	
CNCC(O)COc1cccc(-c2nc(N[C@@H]3CCOC3)c(C)c(-c3cccnc3F)n2)c1 (stereo partly drawn) [Example 348-1a]	0.1 to 1 µM	10 to 20 µM	
CNC[C@@H](O)COc1cccc(-c2nc(N[C@@H]3CCOC3)c(C)c(-c3cn(S(C)(=O)=O)c4ncncc34)n2)c1 [Example 453-1a]	0.1 to 1 µM	5 to 10 µM	
CNCC(O)COc1cc(-c2nc(N(C)C3CCOCC3)c(C)c(-n3cccn3)n2)cc(-n2cccn2)c1 (stereo not drawn) [Example 598-1a]	0.1 to 1 µM	10 to 20 µM	
CNCC(O)COc1cccc(-c2nc(NCC3CCOCC3)cc(N(C)C3CCOCC3)n2)c1 (stereo not drawn) [Example 540-1a]	0.1 to 1 µM	10 to 20 µM	
CNCC(O)COc1cccc(-c2nc(C(=O)NC3CCOCC3)c(C)c(-c3c(C)noc3C)n2)c1 (stereo not drawn) [Example 62-1a]	1 to 3 µM	10 to 20 µM	
CNCC(O)COc1cccc(-c2nc(NC3CCOCC3)cc(-c3ccc(C(F)(F)F)nc3)n2)c1 (stereo not drawn) [Example 654-1a]	0.1 to 1 µM	≥ 20 µM	
CNCC(O)COc1cccc(-c2nc(NC3CCOC3)c(C)c(C(=O)NC3CCOCC3)n2)c1 (stereo not drawn) [Example 383-1a]	1 to 3 µM	10 to 20 µM	
CNCC(O)COc1cccc(-c2nc(N[C@@H]3CC[C@H](C(=O)NC)C3)c(C)c(N3CCOCC3)n2)c1 (stereo partly drawn) [Example 680-1a]	0.1 to 1 µM	≥ 20 µM	

SMILES	IC50 (human CARM1 (PRMT4))	IC50 ([1]; Homo sapiens, RKO)	IC50 [1]
CNCC(O)COc1cccc(-c2nc(NC3CCOCC3)cc(-c3c(C)nn(C)c3C)n2)c1 (stereo not drawn) [Example 675-1a]	0.1 to 1 µM	≥ 20 µM	
CNCC(O)COc1cccc(-c2nc(N3CCOCC3)cc(N(C3CC3)[C@@H]3CCOC3)n2)c1 (stereo partly drawn) [Example 360-1a]	0.1 to 1 µM	10 to 20 µM	
CNCC(O)COc1cccc(-c2nc(NC3CCOCC3)c(CO)c(-c3c(C)noc3C)n2)c1 (stereo not drawn) [Example 213-1a]	0.1 to 1 µM	10 to 20 µM	
CNCC(O)COc1cc(Cl)cc(-c2nc(C(=O)O)cc(N(C)C3CCOCC3)n2)c1 (stereo not drawn) [Example 608-1a]	3 to 10 µM	10 to 20 µM	
CNCC(O)COc1cccc(-c2nc(N[C@@H]3CCOC3)c(C)c(-c3c(C)ncnc3C)n2)c1 (stereo partly drawn) [Example 460-1a]	0.1 to 1 µM	10 to 20 µM	
CNCC(O)COc1cccc(-c2nc(N3CCCC4(CCOCC4)C3)cc(N(C)C3CCOCC3)n2)c1 (stereo not drawn) [Example 494-1a]	0.1 to 1 µM	< 5 µM	
CNCC(O)COc1cccc(-c2nc(N3CCN(C(C)=O)C4(CC4)C3)cc(N(C)C3CCOCC3)n2)c1 (stereo not drawn) [Example 523-1a]	0.1 to 1 µM	5 to 10 µM	
CNCC(O)COc1cccc(-c2nc(-c3c(C)noc3C)c(C)c(N3CCC[C@@H](N(C)C(=O)OC)C3)n2)c1 (stereo partly drawn) [Example 180-1a]	0.1 to 1 µM	10 to 20 µM	
CNCC(O)COc1cccc(-c2nc(C3=CCCC3)cc(C(CCOC)CCOC)n2)c1 (stereo not drawn) [Example 651-1a]	0.1 to 1 µM	≥ 20 µM	
CNCC(O)COc1cccc(-c2nc(-c3c(C)noc3C)c(C)c(N3CCO[C@@H](CO)C3)n2)c1 (stereo partly drawn) [Example 123-1a]	0.1 to 1 µM	5 to 10 µM	
CNCC(O)COc1cccc(-c2nc(C3CCCC3)cc(C(CCOC)CCOC)n2)c1 (stereo not drawn) [Example 650-1a]	0.1 to 1 µM	≥ 20 µM	
CNCC(O)COc1cccc(-c2nc(N3CC4(CCOCC4)C3)cc(N(C)C3CCOCC3)n2)c1 (stereo not drawn) [Example 553-1a]	0.1 to 1 µM	10 to 20 µM	
CNCC(O)COc1cccc(-c2nc(NCC3(CCl)CCOCC3)cc(N(C)C3CCOCC3)n2)c1 (stereo not drawn) [Example 584-1a]	0.1 to 1 µM	10 to 20 µM	
CNCC(O)COc1cccc(-c2nc(-c3c(C)noc3C)c(C)c(-c3nc(C)cn3C)n2)c1 (stereo not drawn) [Example 130-1a]	0.1 to 1 µM	10 to 20 µM	
CNCC(O)COc1cccc(-c2nc(NC3CCOCC3)cc(N(C3CCOCC3)C3CC3)n2)c1 (stereo not drawn) [Example 605-1a]	1 to 3 µM	10 to 20 µM	
CNCC(O)COc1cccc(-c2nc(N[C@@H]3CCOC3)c(C)c(N3CCNC(=O)C3)n2)c1 (stereo partly drawn) [Example 380-1a]	0.1 to 1 µM	10 to 20 µM	
CNCC(O)COc1cc(Cl)cc(-c2nc(C(=O)N(C)C)cc(N(C)C3CCOCC3)n2)c1 (stereo not drawn) [Example 557-1a]	0.1 to 1 µM	10 to 20 µM	
CNCC(O)COc1cccc(-c2nc(-c3ccncc3)cc(N(C)C3CCN(C(C)=O)CC3)n2)c1 (stereo not drawn) [Example 671-1a]	0.1 to 1 µM	≥ 20 µM	
CNCC(O)COc1cccc(-c2nc(O)c(C)c(-c3c(C)noc3C)n2)c1 (stereo not drawn) [Example 73-1a]	0.1 to 1 µM	10 to 20 µM	
CNCC(O)COc1cccc(-c2nc(N[C@@H]3CC[C@@H](O)C3)cc(N(C)C3CCOCC3)n2)c1 (stereo partly drawn) [Example 600-1a]	0.1 to 1 µM	10 to 20 µM	
CNCC(O)COc1cccc(-c2nc(N[C@@H]3CCOC3)c(C)c(-c3c(C)nn(C)c3C)n2)c1 (stereo partly drawn) [Example 354-1a]	0.1 to 1 µM	10 to 20 µM	
CNCC(O)COc1cccc(-c2nc(NC3CCOC3)c(C)c(N3CC[C@H](S(C)(=O)=O)C3)n2)c1 (stereo partly drawn) [Example 431-1a]	0.1 to 1 µM	10 to 20 µM	
CNCC(O)COc1cc(OC)cc(-c2nc(NC3CCOC3)c(C)c(N3CCN(C(C)=O)[C@@H](C)C3)n2)c1 (stereo partly drawn) [Example 432-1a]	0.1 to 1 µM	10 to 20 µM	
CNCC(O)COc1cccc(-c2nc(N3CCN(CCF)CC3)cc(N(C)C3CCOCC3)n2)c1 (stereo not drawn) [Example 596-1a]	0.1 to 1 µM	10 to 20 µM	
CNCC(O)COc1cccc(-c2nc(NC3CCOC3)c(C)c(N3CCC4(CCO4)CC3)n2)c1 (stereo not drawn) [Example 400-1a]	0.1 to 1 µM	5 to 10 µM	
